Test results: patent US20240247080A1, “GLP1/GIP/NPY2 RECEPTOR TRIPLE AGONISTS” (Boehringer Ingelheim International GmbH, priority 2022, published 2024)
Where two headings read alike, the source gives them in different places. Starred links: 1 amine or outer side, 2 acyl side, 3 side chain; linkers in the order of their positions; H or OH if unused. Non-standard residues stand in square brackets, D forms with d. Groups on a side chain read outwards from the residue. *: point of attachment. C20 diacid = O=C(O)CCCCCCCCCCCCCCCCCCC(=O)*; C18 diacid = O=C(O)CCCCCCCCCCCCCCCCC(=O)*; γGlu = O=C(O)[C@H](CCC(=O)[*:2])N[*:1]; εLys = N[C@@H](CCCCN[*:1])C(=O)[*:2]; Aib = CC(C)(N)C(=O)O

Experiments:
Type in all cases: cell-based
Settings in all cases: CreLuc reporter gene assay
hGLP1R = biological target: T1, hGLP1R (Homo sapiens, UniProt P43220); experiment: hGLP1R CreLuc reporter gene assay in 0.5% and 100% plasma
T1 construct: expressed in transfected cells; host or cells: HEK-293 cells carrying a CRE-luciferase reporter gene
T1 sequence (P43220 24-463): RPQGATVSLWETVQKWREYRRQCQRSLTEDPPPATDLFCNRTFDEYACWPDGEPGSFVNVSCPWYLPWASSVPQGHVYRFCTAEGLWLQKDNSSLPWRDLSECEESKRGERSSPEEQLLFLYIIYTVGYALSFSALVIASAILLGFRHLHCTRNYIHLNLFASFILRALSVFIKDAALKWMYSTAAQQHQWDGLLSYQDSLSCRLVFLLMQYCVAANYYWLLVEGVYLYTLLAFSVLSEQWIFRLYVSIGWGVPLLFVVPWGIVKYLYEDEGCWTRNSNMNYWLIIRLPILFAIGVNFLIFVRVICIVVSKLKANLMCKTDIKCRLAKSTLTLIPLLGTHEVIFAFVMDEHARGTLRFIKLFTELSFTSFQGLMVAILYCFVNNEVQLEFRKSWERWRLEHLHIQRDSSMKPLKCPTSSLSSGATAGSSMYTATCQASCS
Outline: (§1)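 HEK-293 cells co-expressing GLP-1 or NPY2 receptor and CHO cells expressing GIP receptor, each carrying a CRE-driven luciferase reporter, were stimulated with peptides for 4 hours at 37 °C. Luminescence was read after Bright-Glo addition. EC50 came from 8-point, four-decade curves fitted by variable-slope non-linear regression.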

hGIPR = biological target: T2, hGIPR (Homo sapiens, UniProt P48546); experiment: hGIPR CreLuc reporter gene assay in 0.5% and 100% plasma
T2 construct: expressed in transfected cells; host or cells: CHO cells carrying a CRE-luciferase reporter gene
T2 sequence (P48546 22-466): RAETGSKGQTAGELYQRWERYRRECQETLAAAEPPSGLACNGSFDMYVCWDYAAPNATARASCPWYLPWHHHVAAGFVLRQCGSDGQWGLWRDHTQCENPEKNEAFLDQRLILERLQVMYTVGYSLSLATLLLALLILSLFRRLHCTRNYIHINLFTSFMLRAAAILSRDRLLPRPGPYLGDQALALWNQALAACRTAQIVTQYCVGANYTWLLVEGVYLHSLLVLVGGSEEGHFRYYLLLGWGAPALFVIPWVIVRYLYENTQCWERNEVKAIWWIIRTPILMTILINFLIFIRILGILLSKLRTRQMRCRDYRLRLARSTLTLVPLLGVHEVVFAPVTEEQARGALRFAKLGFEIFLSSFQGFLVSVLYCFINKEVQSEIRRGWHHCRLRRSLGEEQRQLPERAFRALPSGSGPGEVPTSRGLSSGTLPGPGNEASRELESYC
Outline: as §1

hNPY2R = biological target: T3, hNPY2R (Homo sapiens, UniProt P49146); experiment: hNPY2R CreLuc reporter gene assay in 0.5% and 100% plasma
T3 construct: expressed in transfected cells; host or cells: HEK-293 cells carrying a CRE-luciferase reporter gene
T3 sequence (P49146 1-381): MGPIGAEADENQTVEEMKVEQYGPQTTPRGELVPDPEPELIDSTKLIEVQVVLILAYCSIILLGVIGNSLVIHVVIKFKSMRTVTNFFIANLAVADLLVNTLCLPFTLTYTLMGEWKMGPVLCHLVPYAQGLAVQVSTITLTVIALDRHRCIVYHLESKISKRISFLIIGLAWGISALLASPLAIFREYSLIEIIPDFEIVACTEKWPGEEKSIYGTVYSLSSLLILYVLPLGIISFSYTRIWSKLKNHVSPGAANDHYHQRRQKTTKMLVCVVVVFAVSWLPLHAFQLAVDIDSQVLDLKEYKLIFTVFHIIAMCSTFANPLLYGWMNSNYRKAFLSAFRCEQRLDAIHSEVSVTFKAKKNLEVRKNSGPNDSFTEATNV
Outline: as §1

[1] = 0.5% human plasma, read-out: hGLP1R 0.5% hP
[2] = 100% human plasma, read-out: hGLP1R 100% hP
[3] = 0.5% human plasma, read-out: hGIPR 0.5% hP
[4] = 100% human plasma, read-out: hGIPR 100% hP
[5] = 0.5% human plasma, read-out: hNPY2R 0.5% hP

Row | Molecule | EC50 (hGLP1R; [1]) [nM] | EC50 (hGLP1R; [2]) [nM] | EC50 (hGIPR; [3]) [nM] | EC50 (hGIPR; [4]) [nM] | EC50 (hNPY2R; [5]) [nM] | EC50 (hNPY2R; 100% human plasma, read-out: hNPY2R 100% hP) [nM]
1 | CC[C@H](C)[C@H](NC(=O)[C@H](CC(C)C)NC(=O)[C@H](Cc1c[nH]c2ccccc12)NC(=O)[C@H](CCC(=O)O)NC(=O)[C@@H](NC(=O)[C@H](Cc1ccccc1)NC(=O)[C@H](C)NC(=O)C(C)(C)NC(=O)[C@H](CCC(N)=O)NC(=O)[C@H](C)NC(=O)[C@H](CCC(N)=O)NC(=O)[C@H](CCCCN)NC(=O)[C@H](CCC(=O)O)NC(=O)[C@H](CC(C)C)NC(=O)C(C)(C)NC(=O)[C@@H](NC(=O)[C@H](CO)NC(=O)[C@H](Cc1ccc(O)cc1)NC(=O)[C@H](CC(=O)O)NC(=O)[C@H](CO)NC(=O)[C@@H](NC(=O)[C@H](Cc1ccccc1)NC(=O)[C@@H](NC(=O)CNC(=O)[C@H](CCC(=O)O)NC(=O)C(C)(C)NC(=O)[C@@H](N)Cc1ccc(O)cc1)[C@@H](C)O)[C@@H](C)O)[C@@H](C)CC)C(C)C)C(=O)N[C@@H](CCCCNC(=O)[C@@H](N)CCCCNC(=O)CC[C@H](NC(=O)CC[C@H](NC(=O)CC[C@H](NC(=O)CC[C@H](NC(=O)CC[C@H](NC(=O)CC[C@H](NC(=O)CCCCCCCCCCCCCCCCCCC(=O)O)C(=O)O)C(=O)O)C(=O)O)C(=O)O)C(=O)O)C(=O)O)C(=O)NCC(=O)NCC(=O)N1CCC[C@H]1C(=O)N[C@@H](CO)C(=O)N[C@@H](CCC(=O)O)C(=O)NCC(=O)N[C@@H](CCC(=O)O)C(=O)N[C@@H](CO)C(=O)N[C@@H](CC(C)C)C(=O)N[C@@H](CCCNC(=N)N)C(=O)N[C@@H](Cc1c[nH]cn1)C(=O)N[C@@H](Cc1ccc(O)cc1)C(=O)N[C@@H](Cc1ccc(O)cc1)C(=O)N[C@@H](CC(N)=O)C(=O)N[C@@H](Cc1c[nH]c2ccccc12)C(=O)N[C@@H](CC(C)C)C(=O)N[C@H](C(=O)N[C@@H](CCCNC(=N)N)C(=O)N[C@@H](CCC(N)=O)C(=O)N[C@@H](CCCNC(=N)N)C(=O)N[C@@H](Cc1ccc(O)cc1)C(N)=O)[C@@H](C)O [Compound 237, Y-Aib-E-G-T-F-T-S-D-Y-S-I-Aib-L-E-K-Q-A-Q-Aib-A-F-V-E-W-L-I-K(1,3)-GGPSEGESLRHYYNWLTRQRY-NH2.C20DA-gGlu-gGlu-gGlu-gGlu-gGlu-gGlu-eLys(1,2)] | 0.26 | 3.11 | 0.1 | 1.17 | 18 | –
2 | H-Y[Aib]EGTFTSDYSI[Aib]LEKQAQ[Aib]AFVQWLIK([εLys-γGlu-γGlu-γGlu-γGlu-γGlu-γGlu-C20 diacid])GGQRSYASLRHYYNWLTRQRY-NH2 [Compound 3, Y-Aib-E-G-T-F-T-S-D-Y-S-I-Aib-L-E-K-Q-A-Q-Aib-A-F-V-Q-W-L-I-K(1,3)-GGQRSYASLRHYYNWLTRQRY-NH2.C20DA-gGlu-gGlu-gGlu-gGlu-gGlu-gGlu-eLys(1,2)] | 0.45 | – | 0.53 | – | – | 23
3 | H-Y[Aib]EGTFTSDYSI[Aib]LEKQAQ[Aib]AFVQWLIK([εLys-γGlu-γGlu-γGlu-γGlu-γGlu-γGlu-C18 diacid])GGPSSGASLRHYYNWLTRQRY-NH2 [Compound 170, Y-Aib-E-G-T-F-T-S-D-Y-S-I-Aib-L-E-K-Q-A-Q-Aib-A-F-V-Q-W-L-I-K(1,3)-GGPSSGASLRHYYNWLTRQRY-NH2.C18DA-gGlu-gGlu-gGlu-gGlu-gGlu-gGlu-eLys(1,2)] | 0.09 | – | 0.24 | 1.15 | 19.2 | –
4 | H-Y[Aib]EGTFTSDYSI[Aib]LEKQAQ[Aib]AFVEWLIK([εLys-γGlu-γGlu-γGlu-γGlu-γGlu-C18 diacid])GGPESGASLRHYYNWLTRQRY-NH2 [Compound 152, Y-Aib-E-G-T-F-T-S-D-Y-S-I-Aib-L-E-K-Q-A-Q-Aib-A-F-V-E-W-L-I-K(1,3)-GGPESGASLRHYYNWLTRQRY-NH2.C18DA-gGlu-gGlu-gGlu-gGlu-gGlu-eLys(1,2)] | 0.13 | 4.24 | 0.4 | 0.96 | 12.6 | –
5 | CC[C@H](C)[C@H](NC(=O)[C@H](CC(C)C)NC(=O)[C@H](Cc1c[nH]c2ccccc12)NC(=O)[C@H](CCC(N)=O)NC(=O)[C@@H](NC(=O)[C@H](Cc1ccccc1)NC(=O)[C@H](C)NC(=O)C(C)(C)NC(=O)[C@H](CCC(N)=O)NC(=O)[C@H](C)NC(=O)[C@H](CCC(N)=O)NC(=O)[C@H](CCCCN)NC(=O)[C@H](CCC(=O)O)NC(=O)[C@H](CC(C)C)NC(=O)C(C)(C)NC(=O)[C@@H](NC(=O)[C@H](CO)NC(=O)[C@H](Cc1ccc(O)cc1)NC(=O)[C@H](CC(=O)O)NC(=O)[C@H](CO)NC(=O)[C@@H](NC(=O)[C@H](Cc1ccccc1)NC(=O)[C@@H](NC(=O)CNC(=O)[C@H](CCC(=O)O)NC(=O)C(C)(C)NC(=O)[C@@H](N)Cc1ccc(O)cc1)[C@@H](C)O)[C@@H](C)O)[C@@H](C)CC)C(C)C)C(=O)N[C@@H](CCCCNC(=O)[C@@H](N)CCCCNC(=O)[C@H](CCC(=O)O)NC(=O)[C@H](CCC(=O)O)NC(=O)[C@H](CCC(=O)O)NC(=O)[C@H](CCC(=O)O)NC(=O)[C@H](CCC(=O)O)NC(=O)[C@H](CCC(=O)O)NC(=O)CCCCCCCCCCCCCCCCC(=O)O)C(=O)NCC(=O)NCC(=O)N1CCC[C@H]1C(=O)N[C@@H](CO)C(=O)N[C@@H](CCC(=O)O)C(=O)NCC(=O)N[C@@H](C)C(=O)N[C@@H](CO)C(=O)N[C@@H](CC(C)C)C(=O)N[C@@H](CCCNC(=N)N)C(=O)N[C@@H](Cc1c[nH]cn1)C(=O)N[C@@H](Cc1ccc(O)cc1)C(=O)N[C@@H](Cc1ccc(O)cc1)C(=O)N[C@@H](CC(N)=O)C(=O)N[C@@H](Cc1c[nH]c2ccccc12)C(=O)N[C@@H](CC(C)C)C(=O)N[C@H](C(=O)N[C@@H](CCCNC(=N)N)C(=O)N[C@@H](CCC(N)=O)C(=O)N[C@@H](CCCNC(=N)N)C(=O)N[C@@H](Cc1ccc(O)cc1)C(N)=O)[C@@H](C)O [Compound 249, Y-Aib-E-G-T-F-T-S-D-Y-S-I-Aib-L-E-K-Q-A-Q-Aib-A-F-V-Q-W-L-I-K(1,3)-GGPSEGASLRHYYNWLTRQRY-NH2.C18DA-E-E-E-E-E-E-eLys(1,2)] | 0.13 | 1.78 | 0.19 | 1.25 | 17.8 | –
